The results in this text go back to ChEMBL document CHEMBL1909046, “DrugMatrix in vitro pharmacology data”.

One data set deals with Melanocortin receptor 4 (Homo sapiens, UniProt P32245). The data set is classed as cell membranes, HEK293, Membrane. The conditions noted are these: hek293.
Data set [1] can be described thus: DRUGMATRIX: Leukotriene, BLT (LTB4) radioligand binding (ligand: [3H]LTB4). The data set is classed as cell membranes, Membrane. The conditions noted are these: u-937; Not Active = under 50% inhibition at 10 µM.
Another data set has as its target T1, Cytochrome P450 2A6 (Homo sapiens, UniProt P11509). Further: in other assays of this panel Not Active means under 50% inhibition at 10 µM.
T1 sequence (P11509 whole entry): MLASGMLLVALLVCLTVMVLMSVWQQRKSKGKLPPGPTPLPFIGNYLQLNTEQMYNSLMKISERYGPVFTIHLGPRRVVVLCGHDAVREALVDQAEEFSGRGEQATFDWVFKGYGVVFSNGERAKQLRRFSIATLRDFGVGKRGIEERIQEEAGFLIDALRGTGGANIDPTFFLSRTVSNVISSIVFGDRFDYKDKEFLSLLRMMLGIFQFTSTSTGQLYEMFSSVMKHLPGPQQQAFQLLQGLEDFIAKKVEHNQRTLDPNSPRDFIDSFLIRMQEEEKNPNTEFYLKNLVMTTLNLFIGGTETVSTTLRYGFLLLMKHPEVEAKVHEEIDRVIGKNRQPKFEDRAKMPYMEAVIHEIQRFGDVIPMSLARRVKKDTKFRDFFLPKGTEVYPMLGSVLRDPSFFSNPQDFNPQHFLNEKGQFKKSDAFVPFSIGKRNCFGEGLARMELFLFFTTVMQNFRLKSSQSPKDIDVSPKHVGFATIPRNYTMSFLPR
The settings on record: bti-tn-5b1-4.

A further data set concerns the target D(1A) dopamine receptor (Homo sapiens, UniProt P21728). In words: DRUGMATRIX: Dopamine D1 radioligand binding (ligand: [3H] SCH-23390). The data set is classed as cell membranes, CHO, Membrane. The settings on record: Not Active = under 50% inhibition at 10 µM.
Data set [2] can be described thus: DRUGMATRIX: Calcium Channel Type L, Phenylalkylamine radioligand binding (ligand: [3H] (-)-Desmethoxyverapamil (D-888)). In kind it is cell membranes, Rattus norvegicus, Wistar, Brain, Membrane. The settings on record: Not Active = under 50% inhibition at 10 µM.
The target in data set [3] is T2, Muscarinic acetylcholine receptor M4 (Homo sapiens, UniProt P08173). Further: in other assays of this panel Not Active means under 50% inhibition at 10 µM.
T2 sequence (P08173 whole entry): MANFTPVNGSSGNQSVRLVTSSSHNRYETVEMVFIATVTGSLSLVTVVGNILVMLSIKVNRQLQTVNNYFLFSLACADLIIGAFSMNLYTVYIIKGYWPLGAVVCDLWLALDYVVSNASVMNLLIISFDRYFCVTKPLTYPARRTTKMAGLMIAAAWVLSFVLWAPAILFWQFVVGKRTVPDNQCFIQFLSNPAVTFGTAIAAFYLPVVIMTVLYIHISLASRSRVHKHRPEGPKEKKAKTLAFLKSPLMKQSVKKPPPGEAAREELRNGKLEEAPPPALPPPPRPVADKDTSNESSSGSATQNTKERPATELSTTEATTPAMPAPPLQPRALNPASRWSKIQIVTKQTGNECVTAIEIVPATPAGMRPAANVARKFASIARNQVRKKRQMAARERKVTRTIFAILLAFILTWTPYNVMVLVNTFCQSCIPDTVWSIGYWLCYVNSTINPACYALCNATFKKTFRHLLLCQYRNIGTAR
In kind it is cell membranes, CHO-K1, Membrane. The conditions noted are these: cho-k1.

Chain of Melanocortin receptor 4 (P32245 whole entry): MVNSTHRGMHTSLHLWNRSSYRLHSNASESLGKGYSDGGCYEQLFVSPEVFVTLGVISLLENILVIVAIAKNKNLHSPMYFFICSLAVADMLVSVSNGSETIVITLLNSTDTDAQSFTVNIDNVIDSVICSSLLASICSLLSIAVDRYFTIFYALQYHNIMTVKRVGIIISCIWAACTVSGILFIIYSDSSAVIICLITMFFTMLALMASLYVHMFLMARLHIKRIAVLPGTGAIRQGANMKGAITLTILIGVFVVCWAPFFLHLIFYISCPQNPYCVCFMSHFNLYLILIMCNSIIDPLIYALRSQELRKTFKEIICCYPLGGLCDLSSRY
Chain of D(1A) dopamine receptor (P21728 whole entry): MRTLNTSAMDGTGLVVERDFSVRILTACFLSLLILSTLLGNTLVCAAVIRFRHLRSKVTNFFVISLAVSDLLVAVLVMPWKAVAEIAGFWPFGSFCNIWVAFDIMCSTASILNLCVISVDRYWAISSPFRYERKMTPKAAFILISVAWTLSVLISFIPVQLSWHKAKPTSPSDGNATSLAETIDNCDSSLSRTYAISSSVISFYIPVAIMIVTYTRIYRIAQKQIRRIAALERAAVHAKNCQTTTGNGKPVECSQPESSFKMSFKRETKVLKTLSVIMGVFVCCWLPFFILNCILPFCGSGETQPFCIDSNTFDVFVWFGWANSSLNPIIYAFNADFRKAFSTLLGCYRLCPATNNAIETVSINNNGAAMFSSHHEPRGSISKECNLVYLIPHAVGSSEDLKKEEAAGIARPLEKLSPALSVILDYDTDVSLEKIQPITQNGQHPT

One may read the IC50 as the concentration that inhibits the measured activity by half. As a reminder, the Ki is a measure of affinity in units of concentration, obtained from inhibition or displacement. As to `C[C@@H](CO)NC(=O)[C@@H]1C=C2c3cccc4[nH]cc(c34)C[C@H]2N(C)C1` [ERGONOVINE], the IC50 entry at Melanocortin receptor 4 is “Not Active”; in data set [1], “Not Active”; against Cytochrome P450 2A6, “Not Active”; at D(1A) dopamine receptor (read-out: IC50), 5900 nM; in data set [2] it was “Not Active”; in data set [3], “Not Active”. The Ki entry is “Not Active” in data set [1], “Not Active” on Cytochrome P450 2A6, 2950 nM at D(1A) dopamine receptor (read-out: Ki) and “Not Active” in data set [2].

Regarding `Nc1ccc2c3c(cccc13)C(=O)NC2=O`, the IC50 entry (against Melanocortin receptor 4; in data set [1]; against Cytochrome P450 2A6; at D(1A) dopamine receptor (cho); in data set [2]; in data set [3]) was “Not Active” each time. Moreover, the Ki entry (in data set [1]; at Cytochrome P450 2A6; in data set [2]) was “Not Active” in each case.

Turning to `CCN(CC)CCOCCC1=CCC2CC1C2(C)C` (stereo not drawn) [MYRTECAINE], the IC50 result (against Melanocortin receptor 4; in data set [1]; against Cytochrome P450 2A6; at D(1A) dopamine receptor (cho); in data set [2]; in data set [3]) was “Not Active” throughout. The Ki entry (in data set [1]; at Cytochrome P450 2A6; in data set [2]) was “Not Active” in each case.

As for `CCCOc1ccc(C(=O)OCCN(CC)CC)cc1N` [PROPARACAINE], the IC50 result (against Melanocortin receptor 4; in data set [1]; on Cytochrome P450 2A6; on D(1A) dopamine receptor (cho); in data set [2]; in data set [3]) was “Not Active” each time. The Ki entry (in data set [1]; on Cytochrome P450 2A6; in data set [2]) was “Not Active” throughout.

Turning to `O=C(O)c1cccnc1Nc1cccc(C(F)(F)F)c1` [NIFLUMIC ACID], the IC50 entry (at Melanocortin receptor 4; in data set [1]; against Cytochrome P450 2A6; at D(1A) dopamine receptor (cho); in data set [2]; in data set [3]) was “Not Active” each time. Further, the Ki result (in data set [1]; on Cytochrome P450 2A6; in data set [2]) was “Not Active” in each case.

Take `C#CC1(O)CC[C@H]2[C@@H]3CCC4=CC(=O)CC[C@@H]4[C@H]3CC[C@@]21CC` (stereo partly drawn) [NORGESTREL]: the IC50 entry (against Melanocortin receptor 4; in data set [1]; on Cytochrome P450 2A6; at D(1A) dopamine receptor (cho); in data set [2]; in data set [3]) was “Not Active” each time. Also, the Ki entry (in data set [1]; at Cytochrome P450 2A6; in data set [2]) was “Not Active” in each case.

Consider `CCCN(CCC)S(=O)(=O)c1ccc(C(=O)O)cc1` [PROBENECID], for which the IC50 entry (on Melanocortin receptor 4; in data set [1]; against Cytochrome P450 2A6; at D(1A) dopamine receptor (cho); in data set [2]; in data set [3]) was “Not Active” in each case. Besides, the Ki result (in data set [1]; on Cytochrome P450 2A6; in data set [2]) was “Not Active” each time.

`O=C1CN=C(c2ccccc2Cl)c2cc([N+](=O)[O-])ccc2N1` [CLONAZEPAM]: the IC50 result (against Melanocortin receptor 4; in data set [1]; against Cytochrome P450 2A6; at D(1A) dopamine receptor (cho); in data set [2]; in data set [3]) was “Not Active” each time. Also, the Ki result (in data set [1]; at Cytochrome P450 2A6; in data set [2]) was “Not Active” in each case.

With `CC(C(=O)O)c1cccc(Oc2ccccc2)c1` (stereo not drawn) [FENOPROFEN], the IC50 result (against Melanocortin receptor 4; in data set [1]; against Cytochrome P450 2A6; on D(1A) dopamine receptor (cho); in data set [2]; in data set [3]) was “Not Active” in each case. Moreover, the Ki entry (in data set [1]; on Cytochrome P450 2A6; in data set [2]) was “Not Active” each time.

On to GENTAMICIN, for which the IC50 entry (at Melanocortin receptor 4; in data set [1]; against Cytochrome P450 2A6; at D(1A) dopamine receptor (cho); in data set [2]; in data set [3]) was “Not Active” each time. Further, the Ki result (on Melanocortin receptor 4; in data set [1]; at Cytochrome P450 2A6; on D(1A) dopamine receptor (cho); in data set [2]; in data set [3]) was “Not Active” throughout.

For the compound `CC(=O)Oc1ccc(C(c2ccc(OC(C)=O)cc2)c2ccccn2)cc1` [BISACODYL], the IC50 entry (against Melanocortin receptor 4; in data set [1]; against Cytochrome P450 2A6; on D(1A) dopamine receptor (cho); in data set [2]; in data set [3]) was “Not Active” each time. The Ki result (in data set [1]; at Cytochrome P450 2A6; in data set [2]) was “Not Active” throughout.

As for `C[C@@H]1O[C@@H](O[C@@H]2C=C3CC[C@@H]4[C@H](CC[C@]5(C)[C@@H](c6ccc(=O)oc6)CC[C@]45O)[C@@]3(C)CC2)[C@H](O)[C@H](O)[C@H]1O` [PROSCILLARIDIN], the IC50 entry (against Melanocortin receptor 4; in data set [1]; on Cytochrome P450 2A6; at D(1A) dopamine receptor (cho); in data set [2]; in data set [3]) was “Not Active” in each case. Further, the Ki result (in data set [1]; at Cytochrome P450 2A6; in data set [2]) was “Not Active” each time.

As to `C[C@@H]1C[C@H]2[C@@H]3CCC4=CC(=O)C=C[C@]4(C)[C@@]3(F)[C@@H](O)C[C@]2(C)[C@@]1(O)C(=O)CO` [DEXAMETHASONE], the IC50 entry (on Melanocortin receptor 4; in data set [1]; on Cytochrome P450 2A6; on D(1A) dopamine receptor (cho); in data set [2]; in data set [3]) was “Not Active” each time. The Ki entry (in data set [1]; on Cytochrome P450 2A6; in data set [2]) was “Not Active” each time.

For `C[n+]1ccc(-c2cc[n+](C)cc2)cc1.[Cl-].[Cl-]` [PARAQUAT DICHLORIDE], the IC50 entry (against Melanocortin receptor 4; in data set [1]; against Cytochrome P450 2A6; at D(1A) dopamine receptor (cho); in data set [2]; in data set [3]) was “Not Active” each time. Moreover, the inhibitory constant (Ki) entry (in data set [1]; on Cytochrome P450 2A6; in data set [2]) was “Not Active” in each case.

On to `Cc1cc2c(OCC(CNC(C)(C)C)OC(=O)c3ccccc3)cccc2[nH]1` (stereo not drawn) [BOPINDOLOL], for which the IC50 entry on Melanocortin receptor 4 is “Not Active”; in data set [1], “Not Active”; against Cytochrome P450 2A6, “Not Active”; on D(1A) dopamine receptor (cho) it was “Not Active”; in data set [2] (read-out: IC50), 2900 nM; in data set [3], “Not Active”. Besides, the results for the Ki result (in data set [1]; at Cytochrome P450 2A6; in data set [2] (read-out: Ki)) were “Not Active”, “Not Active” and 2820 nM, respectively.

On to `Nc1ccn([C@@H]2O[C@H](CO)[C@@H](O)C2(F)F)c(=O)n1` [GEMCITABINE], for which the IC50 result (against Melanocortin receptor 4; in data set [1]; at Cytochrome P450 2A6; at D(1A) dopamine receptor (cho); in data set [2]; in data set [3]) was “Not Active” throughout. The Ki result (in data set [1]; at Cytochrome P450 2A6; in data set [2]) was “Not Active” throughout.
